In US20130274100A1, “Synergistic Fungicidal Active Substance Combinations” (priority 2005, published 2013):

Experiments:
Puccinia recondita = experiment: Puccinia test (wheat)/protective; type: in vivo; details: protective spray, evaluation 10 days after inoculation
Excerpt: The expected fungicidal action for a given combination of two active compounds can be calculated as follows, according to S. R. Colby (“Calculating Synergistic and Antagonistic Responses of Herbicide Combinations”, Weeds 1967, 15, 20-22): • X is the efficacy when employing active compound A at an application rate of m g/ha, • Y is the efficacy when employing active compound B at an application rate of n g/ha and • E is the efficacy when employing active compounds A and B at application rates of m and n g/ha, then Here, the efficacy is determined in %. 0% means an efficacy which corresponds to that of the control, whereas an efficacy of 100% means that no infection is observed. If the actual fungicidal action exceeds the calculated value, the action of the combination is superadditive, i.e. a synergistic effect is present. In this case, the actually observed efficacy must exceed the value calculated using the above formula for the expected efficacy (E). Puccinia Test (Wheat)/Protective Solvent: 50 parts by weight of N,N-dimethylacetamide Emulsifier: 1 part by weight of alkylaryl polyglycol ether To produce a suitable preparation of active compound, 1 part by weight of active compound is mixed with the stated amounts of solvent and emulsifier or a commercial active compound formulation, and the concentrate is diluted with water to the desired concentration. To test for protective activity, young plants are sprayed with the preparation of active compound at the stated application rate. After the spray coating has dried on, the plants are sprayed with a conidia suspension of Puccinia recondita. The plants remain in an incubation cabin at 20° C. and 100% relative atmospheric humidity for 48 hours. The plants are then placed in a greenhouse at a temperature of about 20° C. and a relative atmospheric humidity of 80% to promote the development of rust postules. Evaluation is carried out 10 days after the inoculation. 0% means inefficacy which corresponds to that of the control, whereas an efficacy of 100% means that no infection is observed.

[1] = test system: Erysiphe graminis f.sp. tritici; experiment: Erysiphe test (wheat)/protective; type: in vivo; details: protective spray, application rate 62.5 g/ha, evaluation 7 days after inoculation
Excerpt: The expected fungicidal action for a given combination of two active compounds can be calculated as follows, according to S. R. Colby (“Calculating Synergistic and Antagonistic Responses of Herbicide Combinations”, Weeds 1967, 15, 20-22): • X is the efficacy when employing active compound A at an application rate of m g/ha, • Y is the efficacy when employing active compound B at an application rate of n g/ha and • E is the efficacy when employing active compounds A and B at application rates of m and n g/ha, then Here, the efficacy is determined in %. 0% means an efficacy which corresponds to that of the control, whereas an efficacy of 100% means that no infection is observed. If the actual fungicidal action exceeds the calculated value, the action of the combination is superadditive, i.e. a synergistic effect is present. In this case, the actually observed efficacy must exceed the value calculated using the above formula for the expected efficacy (E). Erysiphe Test (Wheat)/Protective Solvent: 50 parts by weight of N,N-dimethylacetamide Emulsifier: 1 part by weight of alkylarylpolyglycol ether To produce a suitable preparation of active compound, 1 part by weight of active compound is mixed with the stated amounts of solvent and emulsifier or a commercial active compound formulation, and the concentrate is diluted with water to the desired concentration. To test for protective activity, young plants are sprayed with the preparation of active compound at the stated application rate. After the spray coating has dried on, the plants are dusted with spores of Erysiphe graminis f.sp. tritici. The plants are placed in a greenhouse at a temperature of about 20° C. and a relative atmospheric humidity of about 80% to promote the development of mildew pustules. Evaluation is carried out 7 days after the inoculation. 0% means an efficacy which corresponds to that of the control, whereas an efficacy of 100% means that no infection is observed.

| Structure (SMILES) | Efficacy in % found (Puccinia recondita; application rate 125 g/ha) [%] | Efficacy in % found (Puccinia recondita; application rate 250 g/ha) [%] | Efficacy in % found [1] [%] |
| --- | --- | --- | --- |
| CC(C)CC(C)c1sccc1NC(=O)c1cn(C)nc1C(F)(F)F (stereo not shown) [(1-1), N-[2-(1,3-dimethylbutyl)-3-thienyl]-1-methyl-3-(trifluoromethyl)-1H-pyrazole-4-carboxamide] | 33 | 67 | 0 |
| CO/C=C(/C(=O)OC)c1ccccc1COc1cccc(C(F)(F)F)n1 [(2-9), Picoxystrobin] | – | 94 | 71 |
| CCCC1COC(Cn2cncn2)(c2ccc(Cl)cc2Cl)O1 (stereo not shown) [(3-3), Propiconazole] | 56 | – | 29 |
| CC(C1CC1)C(O)(Cn1cncn1)c1ccc(Cl)cc1 (stereo not shown) [(3-6), Cyproconazole] | 94 | – | 57 |
| CCCCC(O)(Cn1cncn1)c1ccc(Cl)cc1Cl (stereo not shown) [(3-7), Hexaconazole] | 78 | – | 29 |
| Cc1cc(C2CC2)nc(Nc2ccccc2)n1 [(9-1), Cyprodinil] | 0 | – | 0 |
